Experiments:
ARAF = target: T1, ARAF (Homo sapiens, UniProt P10398); assay: Time-resolved fluorescence energy transfer binding assay (KINETICfinder); settings: partial length active recombinant human ARAF at 5 nmol/L; 60 minutes, room temperature; singlicate
T1 sequence (P10398 310-570 limits assumed): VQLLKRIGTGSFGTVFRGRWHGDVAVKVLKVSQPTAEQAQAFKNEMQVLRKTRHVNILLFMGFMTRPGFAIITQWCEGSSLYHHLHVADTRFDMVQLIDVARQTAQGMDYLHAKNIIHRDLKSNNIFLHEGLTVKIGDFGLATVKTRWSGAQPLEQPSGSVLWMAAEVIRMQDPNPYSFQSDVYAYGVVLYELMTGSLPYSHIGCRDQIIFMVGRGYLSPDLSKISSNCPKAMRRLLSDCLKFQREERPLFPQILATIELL
Protocol: Compounds were mixed with assay buffer (50 mmol/L HEPES pH 7.5, 1 mmol/L Ethyleneglycol-bis-(aminoethyl-ether)-N,N,N',N'-tetraacetic acid, 0.01% Brij-35, 10 mmol/L MgCl2, and 2 mmol/L Dithiothreitol), and 5 μL of this solution was transferred to the assay plate. The final concentration of DMSO in the assay was 1%. Hundred percent DMSO was used as a high and low control. Assays were run in singlicate with a reference compound included in each assay to evaluate reproducibility and assay quality.
Wells containing the fluorescent probe, antibody, and target (ARAF) were used as the high reaction control (total binding) and wells containing the probe and antibody were used as the low reaction control (nonspecific binding). […] Next, the substrate antibody solution was added, and the reaction was incubated for 60 minutes at room temperature. Percentage inhibition of each well was calculated using the following formula: % inhibition = 100 − [compound emission ratio (ER) − low control ER/high control ER − low control ER] × 100. Results were fitted to a concentration response curve with a variable slope and constraints of 0 and 100 for bottom and top, respectively, to generate the IC50 values.

BRAF V600E = test system: BRAF V600E; parameters: method as in PMID 26351322, PMID 30300582; settings: full length human construct; 0.125 nmol/L GST-tagged BRAF V600E, 100 nmol/L biotinylated MEK, ATP 25 μmol/L; cited from earlier work
[1] = test system: pERK in AGK::BRAF fusion melanoma PDX tumors; assay: pERK modulation in vivo (PK-PD study), AGK::BRAF fusion melanoma PDX tumors, Western blot; parameters: species or system mice
Protocol: Tumor and plasma samples were collected at 4, 8, and 24 hours after dose administration (three mice per timepoint). […] Tumor and plasma samples were collected at 4 and 24 hours after dose administration (three mice per time point). Tumor samples were snap-frozen and analyzed by Western blotting for pERK levels. Plasma samples were analyzed by the LC/MS-MS method to confirm plasma drug concentration.
Tumor samples were lysed with RIPA buffer (Thermo Fisher Scientific, cat. no. 89901) containing one complete EDTA-free tablet (Roche, cat. no. 05892791001) and one phosphatase inhibitor cocktail tablet (Roche, cat. no. 04906845001) per 10 mL of RIPA buffer. Protein concentration was determined using bicinchoninic acid assay (Pierce, cat. no. 23227). Samples were loaded at 25 to 30 μg/lane on 4% to 12% NuPAGE Bis-Tris gels (Invitrogen, cat. no. WG1403BOX) and were run in MOPS-SDS running buffer (Invitrogen, cat. no. NP0001) at constant voltage (120V) for approximately 2 hours. The gels were transferred onto a pre-activated polyvinylidene fluoride membrane (Millipore, cat. no. IPVH00010) in transfer buffer (Bio-Rad, cat. no. 161-0734). […] Blots were scanned and quantified using the Odyssey (LI-COR Biosciences) or Tanon 5200 Multi Image system (Tanon), and each sample was normalized to allow comparison.

[2] = test system: AGK::BRAF fusion melanoma PDX; assay: Antitumor efficacy in vivo, AGK::BRAF fusion melanoma PDX; parameters: species or system mice; settings: for effect on tumor growth: NOD/SCID mice
Protocol: Female mice with tumors harboring an AGK::BRAF fusion melanoma PDX or NF1-LOF ERMS PDX were established by inoculating NOD or NOG/SCID mice, respectively, with tumor fragments harvested from stock mice. Mice with tumors harboring an NF1-LOF mutation MeWo xenograft were established in 10 mice per treatment group by inoculating 7- to 9-week-old female BALB/c nude mice on the right flank with tumor cells (5 × 10^6) in 0.1 mL of PBS mixed with Matrigel (1:1) for tumor development. For the AGK::BRAF fusion melanoma PDX model, 7- to 8-week-old mice were inoculated subcutaneously on the right flank and randomized into eight mice per treatment group. For the NF1-LOF ERMS PDX model, tumor fragments were harvested from stock animals and implanted unilaterally on the left flank of 6- to 8-week-old mice and then the mice were randomized into 10 mice per treatment group. After tumor cell inoculation, the animals were checked daily for morbidity and mortality. All experiments were performed once.
Purified water (type II or high-performance liquid chromatography grade) was used as aqueous suspension vehicle and control for in vivo efficacy experiments. […] Tovorafenib was freshly prepared every day prior to dosing.
Randomization was performed based on the “Matched distribution” method (StudyDirector software, version 3.1.399.19) with the date of randomization denoted as day 0. Tumor volumes and body weight were measured twice per week after randomization. Tumor volume was measured in two dimensions (2D) using a caliper, and the volume was expressed in mm^3 using the formula V = (L × W × W)/2, in which V was tumor volume, L was tumor length (the longest tumor dimension), and W was tumor width (the longest tumor dimension perpendicular to L). Percentage change in tumor volume and body weight was calculated using StudyDirector software (version 3.1.399.19).
The mice in the control vehicle group were dosed either daily or twice daily.

plexiform neurofibroma = settings: GEMM models of plexiform neurofibroma, germline NF1-LOF mutations; cited from earlier work

Compound: C[C@@H](NC(=O)c1ncnc(N)c1Cl)c1ncc(C(=O)Nc2cc(C(F)(F)F)c(Cl)cn2)s1 [Tovorafenib]
- IC50 (ARAF): 55 nM
- pERK in tumor compared with vehicle control ([1]; single oral dose 17.5 mg/kg, 8 and 24 hours after dose): Inhibition of pERK was observed
- pERK in tumor compared with vehicle control ([1]; single oral dose 25 mg/kg, 4, 8, and 24 hours after dose): Inhibition of pERK was observed
- day on which tumors started to regrow ([2]; 17.5 mg/kg daily, approximately 2 weeks after the last dosage): 28 days
- effect on tumor growth ([2]; 17.5 mg/kg orally daily for 14 days): tumor regression was observed
- effect on tumor growth ([2]; 25 mg/kg orally daily for 14 days): tumor regression was observed
- tolerability ([2]; 25 and 17.5 mg/kg orally daily, both dose levels): well tolerated
- body weight loss ([2]; 25 and 17.5 mg/kg orally daily, throughout the treatment): no significant body weight loss
- time tumor regression was sustained after the last dose ([2]; both efficacy studies (25 and 17.5 mg/kg), last dose on day 14): at least 7 days
- antitumor activity (plexiform neurofibroma): lack of tovorafenib antitumor activity
